Data from patent US12655142B2 (Merck Patent GmbH, priority 2019, dated 2026).

Assays:
c-Kit(V654A) = target: T1, c-Kit(V654A) (Homo sapiens, UniProt P10721, V654A); test: c-Kit(V654A) assay (33P-ATP filter binding kinase assay); format: biochemical; details: recombinant human c-Kit aa 544-end V654A, ATP 200 μM
T1 construct: recombinant human c-Kit, amino acids 544-end containing the V654A mutation; GST (N)
Procedure, shortened: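 Radiometric filter-binding read-out: substrate 33P incorporation counted by scintillation after P30 filtermat washes in 75 mM phosphoric acid and methanol. Enzyme: N-GST recombinant human c-Kit aa 544-end carrying V654A.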

[1] = target: T2, GIST430/654 cell line expressing mutated constitutively active cKIT receptor tyrosine kinase (Δ560-576 deletion and V654A point mutation) (Homo sapiens, UniProt P10721, DEL560-576/V654A); test: Cellular cKIT autophosphorylation (phospho-Y307-cKIT, Luminex bead assay) in GIST430/654 cells; format: cell-based; details: compounds 45 min, read-out: GIST 430/654 IC50
T2 construct: endogenous in cells; host or cells: GIST430/654 cells
Procedure, shortened: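 Phospho-Y307 cKIT in lysates was measured on a Luminex bead assay, with total-cKIT capture overnight at 4 °C and phosphospecific plus PE secondary detection. Cells had 45 min exposure to a compound dilution series the day after plating: GIST430 (Δ560-576) or GIST430/654 (Δ560-576/V654A, grown with 100 nM imatinib). IC50 values are relative to 0.3% DMSO-treated cells.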

[2] = target: T3, GIST430 cell line expressing constitutive active cKIT receptor tyrosine kinase (Δ560-576 deletion) (Homo sapiens, UniProt P10721, DEL560-576); test: Cellular cKIT autophosphorylation (phospho-Y307-cKIT, Luminex bead assay) in GIST430 cells; format: cell-based; details: cKIT autophosphorylation, GIST430 cells, compounds 45 min; read-out: GIST 430 IC50
T3 construct: endogenous in cells; host or cells: GIST430 cells
Method: Assay Principle for Cellular Testing of cKIT Mutant Inhibitors
The GIST430 cell line expressing constitutive active cKIT receptor tyrosine kinase (Δ560-576 deletion) and the Imatinib resistant GIST430/654 cell line expressing mutated constitutively active cKIT receptor tyrosine kinase (Δ560-576 deletion and V654A point mutation) were employed for assessing cellular potency of compounds. Cellular activity of mutant cKIT was determined by the degree of cKIT autophosphorylation at tyrosine 307 using a Luminex-based bead assay. GIST430 cells were plated with 22,000 cells per well of a 96-well plate in 100 μl medium (85% IMDM/15% FCS) and GIST430/654 cells were plated with 25,000 cells per well of a 96-well plate in 100 μl medium (85% IMDM/15% FCS supplemented with 100 nM Imatinib). At the following day compounds were added in a serial dilution for 45 min. Then, cells were lysed with 90 μl lysis buffer (20 mM Hepes pH 7.5, 200 mM NaCl, 1.5 mM MgCl2×6H2O, 0.4 mM EDTA, 1% Triton-X-100, 1% Phosphatase-Inhibitor II, 20 mM β-Glycerolphosphat, 0.1% Protease-Inhibitor Cocktail III, 0.01% Benzonase) and lysates were cleared by centrifugation through a 96-well filter plate (0.65 μm). Samples were incubated with Luminex-beads which were coupled with an anti-total cKIT antibody overnight at 4° C. under gentle agitation. For detection of phospho-Y307-cKIT a phosphospecific antibody and a species-specific PE-labeled secondary antibody were added. The amount of phospho-Y307-cKIT was determined in a Luminex 200 instrument measuring 100 events per well within 60 seconds.
Counts from samples treated with compounds were calculated as percent of control from solvent treated (0.3% DMSO) samples. Dose-response curves were fitted and IC50 values were determined using Genedata Screener software.

[3] = Determination of Efflux-Ratio (ER) in Caco-2 cells; details: human, Caco-2, pH 7.4

T3 sequence (P10721 with tags, fused parts or gaps DEL560-576): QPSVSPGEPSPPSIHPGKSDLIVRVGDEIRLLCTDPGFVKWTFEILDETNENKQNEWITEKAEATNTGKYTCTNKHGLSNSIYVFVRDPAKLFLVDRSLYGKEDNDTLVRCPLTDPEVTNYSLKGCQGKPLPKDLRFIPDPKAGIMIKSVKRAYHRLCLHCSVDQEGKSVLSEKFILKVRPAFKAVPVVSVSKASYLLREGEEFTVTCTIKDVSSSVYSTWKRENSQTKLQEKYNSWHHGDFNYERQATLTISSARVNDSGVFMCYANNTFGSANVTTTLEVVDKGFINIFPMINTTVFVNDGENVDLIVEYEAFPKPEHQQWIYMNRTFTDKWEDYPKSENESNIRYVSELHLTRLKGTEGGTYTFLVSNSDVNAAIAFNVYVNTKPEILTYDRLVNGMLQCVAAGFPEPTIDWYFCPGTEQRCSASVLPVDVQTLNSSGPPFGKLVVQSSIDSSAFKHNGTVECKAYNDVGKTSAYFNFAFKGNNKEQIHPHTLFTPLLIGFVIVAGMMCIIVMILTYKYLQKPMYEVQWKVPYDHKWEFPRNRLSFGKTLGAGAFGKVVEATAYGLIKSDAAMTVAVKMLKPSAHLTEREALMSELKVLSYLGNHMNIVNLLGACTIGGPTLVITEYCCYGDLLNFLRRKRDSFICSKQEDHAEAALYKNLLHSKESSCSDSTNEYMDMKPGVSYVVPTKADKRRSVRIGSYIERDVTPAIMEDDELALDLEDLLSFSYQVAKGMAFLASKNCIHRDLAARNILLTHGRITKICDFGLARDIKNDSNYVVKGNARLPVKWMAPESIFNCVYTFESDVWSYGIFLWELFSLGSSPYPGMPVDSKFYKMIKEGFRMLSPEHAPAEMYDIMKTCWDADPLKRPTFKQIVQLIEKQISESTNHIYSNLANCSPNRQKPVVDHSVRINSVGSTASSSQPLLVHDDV
T1 sequence (P10721 544-976 V654A): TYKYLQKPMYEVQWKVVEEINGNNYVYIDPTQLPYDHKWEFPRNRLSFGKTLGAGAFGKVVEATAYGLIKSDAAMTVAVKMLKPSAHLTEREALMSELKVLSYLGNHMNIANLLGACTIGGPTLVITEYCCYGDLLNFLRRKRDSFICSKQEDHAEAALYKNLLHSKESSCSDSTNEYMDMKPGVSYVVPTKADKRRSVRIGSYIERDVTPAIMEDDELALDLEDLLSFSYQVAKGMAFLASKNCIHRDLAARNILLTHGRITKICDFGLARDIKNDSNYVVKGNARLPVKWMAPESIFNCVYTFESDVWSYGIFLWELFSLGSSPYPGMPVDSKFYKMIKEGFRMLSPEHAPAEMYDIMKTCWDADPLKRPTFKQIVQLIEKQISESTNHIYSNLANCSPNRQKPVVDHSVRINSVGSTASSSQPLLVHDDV
T2 sequence (P10721 with tags, fused parts or gaps DEL560-576/V654A): as the sequence (P10721 with tags, fused parts or gaps DEL560-576) above, with V612A counted along it

CN1CCC(COc2ccn3c(-c4cc(NCc5ccc(-c6cnn(C)n6)cc5)ncn4)cnc3c2)CC1 [A79, {6-[7-(1-methyl-piperidin-4-ylmethoxy)-imidazo[1,2-a]pyridin-3-yl]-pyrimidin-4-yl}-[4-(2-methyl-2H-[1,2,3]triazol-4-yl)-benzyl]-amine]
IC50 (c-Kit(V654A)): 1.5 nM
IC50 [1]: 28 nM
IC50 [2]: 4.1 nM
efflux ratio at 2 h, 1 μM [3]: < 15

Cn1ncc(-c2ccc(CNc3cc(-c4cnc5cc(OCC(C)(C)O)ccn45)ncn3)cc2)n1 [A85, 2-methyl-1-(3-{6-[4-(2-methyl-2H-[1,2,3]triazol-4-yl)-benzylamino]-pyrimidin-4-yl}-imidazo[1,2-a]pyridin-7-yloxy)-propan-2-ol]
IC50 (c-Kit(V654A)): 6.5 nM
IC50 [1]: 65 nM
IC50 [2]: 3.3 nM
efflux ratio at 2 h, 1 μM [3]: < 15

Cn1ncc(-c2ccc(CNc3cc(-c4cnc5cc(OCCN6CC7(COC7)C6)ccn45)ncn3)cc2)n1 [A108, [4-(2-methyl-2H-[1,2,3]triazol-4-yl)-benzyl]-(6-{7-[2-(2-oxa-6-aza-spiro[3.3]hept-6-yl)-ethoxy]-imidazo[1,2-a]pyridin-3-yl}-pyrimidin-4-yl)-amine]
IC50 (c-Kit(V654A)): 3.3 nM
IC50 [1]: 40 nM
IC50 [2]: 1.5 nM
efflux ratio at 2 h, 1 μM [3]: < 15

CO[C@@H]1CCN(c2ccc(CNc3cc(-c4cnc5ccccn45)ncn3)cn2)C1 [A146, 6-{imidazo[1,2-a]pyridin-3-yl}-N-({6-[(3R)-3-methoxypyrrolidin-1-yl]pyridin-3-yl}methyl)pyrimidin-4-amine]
IC50 (c-Kit(V654A)): 7 nM
IC50 [1]: 340 nM
IC50 [2]: 48 nM
efflux ratio at 2 h, 1 μM [3]: < 15

c1ccn2c(-c3cc(NCc4ccc(N5CCCC5)nc4)ncn3)cnc2c1 [A147, (6-imidazo[1,2-a]pyridin-3-yl-pyrimidin-4-yl)-(6-pyrrolidin-1-yl-pyridin-3-ylmethyl)-amine]
IC50 (c-Kit(V654A)): 5.4 nM
IC50 [1]: 430 nM
IC50 [2]: 7.3 nM
efflux ratio at 2 h, 1 μM [3]: < 15

F[C@H]1CCN(c2ccc(CNc3cc(-c4cnc5ccccn45)ncn3)cn2)C1 [A148, N-({6-[(3S)-3-fluoropyrrolidin-1-yl]pyridin-3-yl}methyl)-6-{imidazo[1,2-a]pyridin-3-yl}pyrimidin-4-amine]
IC50 (c-Kit(V654A)): 4.9 nM
IC50 [1]: 220 nM
IC50 [2]: 7.3 nM
efflux ratio at 2 h, 1 μM [3]: < 15

FC1(F)CCN(c2ccc(CNc3cc(-c4cnc5ccccn45)ncn3)cn2)C1 [A150, [6-(3,3-difluoro-pyrrolidin-1-yl)-pyridin-3-ylmethyl]-(6-imidazo[1,2-a]pyridin-3-yl-pyrimidin-4-yl)-amine]
IC50 (c-Kit(V654A)): 8.9 nM
IC50 [1]: 140 nM
IC50 [2]: 12 nM
efflux ratio at 2 h, 1 μM [3]: < 15

CO[C@H]1CCN(c2ccc(CNc3cc(-c4cnc5ccccn45)ncn3)cn2)C1 [A151, 6-{imidazo[1,2-a]pyridin-3-yl}-N-({6-[(3S)-3-methoxypyrrolidin-1-yl]pyridin-3-yl}methyl)pyrimidin-4-amine]
IC50 (c-Kit(V654A)): 15 nM
IC50 [1]: 300 nM
IC50 [2]: 9.9 nM
efflux ratio at 2 h, 1 μM [3]: < 15

Cn1cc(-c2ccc(CNc3cc(-c4cnc5cc(OCCO)ccn45)ncn3)cc2)cn1 [A172, 2-({3-[6-({[4-(1-methyl-1H-pyrazol-4-yl)phenyl]methyl}amino)pyrimidin-4-yl]imidazo[1,2-a]pyridin-7-yl}oxy)ethan-1-ol]
IC50 (c-Kit(V654A)): 6.3 nM
IC50 [1]: 75 nM
IC50 [2]: 2.7 nM
efflux ratio at 2 h, 1 μM [3]: < 15

Cn1ncc(-c2ccc(CNc3cc(-c4cnc5cc(OCCO)ccn45)ncn3)cc2)n1 [A173, 2-({3-[6-({[4-(2-methyl-2H-1,2,3-triazol-4-yl)phenyl]methyl}amino)pyrimidin-4-yl]imidazo[1,2-a]pyridin-7-yl}oxy)ethan-1-ol]
IC50 (c-Kit(V654A)): 3.7 nM
IC50 [1]: 57 nM
IC50 [2]: 22 nM
efflux ratio at 2 h, 1 μM [3]: < 15

Cn1cc(-c2ccc(CNc3cc(-c4cnc5cc(N6CCCC6)ccn45)ncn3)cc2)cn1 [A177, [4-(1-methyl-1H-pyrazol-4-yl)-benzyl]-[6-(7-pyrrolidin-1-yl-imidazo[1,2-a]pyridin-3-yl)-pyrimidin-4-yl]-amine]
IC50 (c-Kit(V654A)): 17 nM
IC50 [1]: 34 nM
IC50 [2]: 15 nM
efflux ratio at 2 h, 1 μM [3]: < 15

Cn1cc(-c2ccc(CNc3cc(-c4cnc5cc(N6CCC(CCO)C6)ccn45)ncn3)cc2)cn1 (stereo not drawn) [A178, 2-[1-(3-{6-[4-(1-methyl-1H-pyrazol-4-yl)-benzylamino]-pyrimidin-4-yl}-imidazo[1,2-a]pyridin-7-yl)-pyrrolidin-3-yl]-ethanol]
IC50 (c-Kit(V654A)): 19 nM
IC50 [1]: 47 nM
IC50 [2]: 3.8 nM
efflux ratio at 2 h, 1 μM [3]: < 15

Cn1ncc(-c2ccc(CNc3cc(-c4cnc5cc(OCCCN6CCN(C7COC7)CC6)ccn45)ncn3)cc2)n1 [A185, [4-(2-methyl-2H-[1,2,3]triazol-4-yl)-benzyl]-(6-{7-[3-(4-oxetan-3-yl-piperazin-1-yl)-propoxy]-imidazo[1,2-a]pyridin-3-yl}-pyrimidin-4-yl)-amine]
IC50 (c-Kit(V654A)): 6.7 nM
IC50 [1]: 59 nM
IC50 [2]: 1.3 nM
efflux ratio at 2 h, 1 μM [3]: < 15

Cn1cc(-c2ccc(CNc3cc(-c4cnc5cc(OCCN6CCn7nncc7C6)ccn45)ncn3)cc2)cn1 [A217, (6-{7-[2-(6,7-dihydro-4H-[1,2,3]triazolo[1,5-a]pyrazin-5-yl)-ethoxy]-imidazo[1,2-a]pyridin-3-yl}-pyrimidin-4-yl)-[4-(1-methyl-1H-pyrazol-4-yl)-benzyl]-amine]
IC50 (c-Kit(V654A)): 7.8 nM
IC50 [1]: 76 nM
IC50 [2]: 4.4 nM
efflux ratio at 2 h, 1 μM [3]: 15 to 50

Cn1cc(-c2ccc(CNc3cc(-c4cnc5cc(OCCCNC6COC6)ccn45)ncn3)cc2)cn1 [A258, N-{[4-(1-methyl-1H-pyrazol-4-yl)phenyl]methyl}-6-(7-{3-[(oxetan-3-yl)amino]propoxy}imidazo[1,2-a]pyridin-3-yl)pyrimidin-4-amine]
IC50 (c-Kit(V654A)): 5.1 nM
IC50 [1]: 56 nM
IC50 [2]: 2.7 nM
efflux ratio at 2 h, 1 μM [3]: < 15

Cn1ncc(-c2ccc(CNc3cc(-c4cnc5cc(OCCCNC6COC6)ccn45)ncn3)cc2)n1 [A259, N-{[4-(2-methyl-2H-1,2,3-triazol-4-yl)phenyl]methyl}-6-(7-{3-[(oxetan-3-yl)amino]propoxy}imidazo[1,2-a]pyridin-3-yl)pyrimidin-4-amine]
IC50 (c-Kit(V654A)): 3.8 nM
IC50 [1]: 33 nM
IC50 [2]: 1.8 nM
efflux ratio at 2 h, 1 μM [3]: < 15

Cn1cc(-c2ccc(CNc3cc(-c4cnc5cc(OCCCN[C@@H]6CCOC6)ccn45)ncn3)cc2)cn1 [A260, N-{[4-(1-methyl-1H-pyrazol-4-yl)phenyl]methyl}-6-[7-(3-{[(3R)-oxolan-3-yl]amino}propoxy)imidazo[1,2-a]pyridin-3-yl]pyrimidin-4-amine]
IC50 (c-Kit(V654A)): 6 nM
IC50 [1]: 43 nM
IC50 [2]: 1.9 nM
efflux ratio at 2 h, 1 μM [3]: 15 to 50

Cc1nc(-c2ccc(CNc3cc(-c4cnc5cc(OCCN6CCC(=O)N(C)CC6)ccn45)ncn3)cc2)co1 [A261, 4-methyl-1-[2-({3-[6-({[4-(2-methyl-1,3-oxazol-4-yl)phenyl]methyl}amino)pyrimidin-4-yl]imidazo[1,2-a]pyridin-7-yl}oxy)ethyl]-1,4-diazepan-5-one]
IC50 (c-Kit(V654A)): 2.1 nM
IC50 [1]: 54 nM
IC50 [2]: 1.4 nM
efflux ratio at 2 h, 1 μM [3]: < 15
